In patent US10189836B2, “Therapeutic compounds, compositions and methods of use thereof” (Genentech, Inc., priority 2015, dated 2019) one finds Ki data, which are given here for 21 compounds.

Experiment [1] concerns the target isolated recombinant JAK1 kinase domain (Homo sapiens (Human), UniProt P23458). Description: JAK1 enzyme assay (Caliper LabChip, Ki). As to conditions: isolated recombinant JAK1 kinase domain, 1.5 nM enzyme, ATP 25 μM. Format: biochemical.
Experiment [2] addresses isolated recombinant JAK2 kinase domain (Homo sapiens (Human), UniProt O60674). Description: JAK2 enzyme assay (Caliper LabChip, Ki). Format: biochemical. The conditions noted are these: isolated recombinant JAK2 kinase domain, 0.2 nM enzyme, ATP 25 μM.

Each structure is given as a SMILES string.

Chain of isolated recombinant JAK2 kinase domain (O60674 849-1124): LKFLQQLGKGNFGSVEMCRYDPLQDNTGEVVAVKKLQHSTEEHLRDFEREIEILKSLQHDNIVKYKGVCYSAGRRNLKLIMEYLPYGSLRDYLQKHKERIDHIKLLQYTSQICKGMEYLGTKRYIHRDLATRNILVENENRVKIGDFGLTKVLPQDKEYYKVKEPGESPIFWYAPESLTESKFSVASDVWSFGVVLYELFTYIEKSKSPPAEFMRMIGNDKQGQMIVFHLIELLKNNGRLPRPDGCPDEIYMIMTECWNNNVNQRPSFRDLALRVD
Chain of isolated recombinant JAK1 kinase domain (P23458 875-1153): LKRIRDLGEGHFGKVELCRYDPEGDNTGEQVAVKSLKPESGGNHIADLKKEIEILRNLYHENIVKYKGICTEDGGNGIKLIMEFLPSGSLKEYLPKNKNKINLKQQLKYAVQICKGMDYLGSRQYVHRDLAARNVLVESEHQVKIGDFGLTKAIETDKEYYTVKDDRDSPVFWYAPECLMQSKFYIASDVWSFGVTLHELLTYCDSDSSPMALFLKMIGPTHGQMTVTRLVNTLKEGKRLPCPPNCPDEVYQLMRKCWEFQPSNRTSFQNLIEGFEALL

As a reminder, the Ki is the dissociation constant of the complex between target and ligand, obtained from inhibition or displacement. Turning to `CN1CCN(C(=O)Cn2cc(Nc3nc4c(N5C[C@H]6CC[C@@H](C5)[C@H]6OCc5ccccc5C#N)cccn4n3)cn2)CC1` [Example 142, 2-[[rac-(1S,5R)-3-[2-[[1-[2-(4-methylpiperazin-1-yl)-2-oxo-ethyl]pyrazol-4-yl]amino]-[1,2,4]triazolo[1,5-a]pyridin-8-yl]-3-azabicyclo[3.2.1]octan-8-yl]oxymethyl]benzonitrile], the Ki worked out at 0.7 nM in experiment [1] and 1.7 nM in experiment [2].

Turning to `CN1CCN(C(=O)Cn2cc(Nc3nc4c(N5CC6CCC(C5)N6S(=O)(=O)c5cccc(C#N)c5)cccn4n3)cn2)CC1` [Example 143, 3-[[3-[2-[[1-[2-(4-methylpiperazin-1-yl)-2-oxo-ethyl]pyraol-4-yl]amino]-[1,2,4]triazolo[1,5-a]pyridin-8-yl]-3,8-diazabicyclo[3.2.1]octan-8-yl]sulfonyl]benzonitrile], the Ki is 0.5 nM in experiment [1] and 1.1 nM in experiment [2].

Regarding `COC1(C(F)(F)F)CN(C(=O)N2C3CCC2CN(c2cccn4nc(Nc5cnn(CC(=O)N6CCN(C)CC6)c5)nc24)C3)C1` [Example 146, 2-[4-[[8-[8-[3-methoxy-3-(trifluoromethyl)azetidine-1-carbonyl]-3,8-diazabicyclo[3.2.1]octan-3-yl]-[1,2,4]triazolo[1,5-a]pyridin-2-yl]amino]pyrazol-1-yl]-1-(4-methylpiperazin-1-yl)ethanone], the inhibition constant Ki in experiment [1] and in experiment [2] was 6.1 nM in each case.

For the compound `CN1CCN(C(=O)Cn2cc(Nc3nc4c(N5CC6CCC(C5)N6S(=O)(=O)c5ccccc5C#N)cccn4n3)cn2)CC1` [Example 147, 2-[[3-[2-[[1-[2-(4-methylpiperazin-1-yl)-2-oxo-ethyl]pyrazol-4-yl]amino]-[1,2,4]triazolo[1,5-a]pyridin-8-yl]-3,8-diazabicyclo[3.2.1]octan-8-yl]sulfonyl]benzonitrile], the results for the inhibitory constant (Ki) in experiment [1] and in experiment [2] were 0.4 nM and 0.3 nM, respectively.

Turning to `CN1CCN(C(=O)Cn2cc(Nc3nc4c(N5CC6CCC(C5)N6S(=O)(=O)c5ccccc5C(F)(F)F)cccn4n3)cn2)CC1` [Example 148, 1-(4-methylpiperazin-1-yl)-2-[4-[[8-[8-(2-(trifluoromethyl)phenyl]sulfonyl-3,8-diazabicyclo[3.2.1]octan-3-yl]-[1,2,4]triazolo[1,5-a]pyridin-2-yl]amino]pyrazol-1-yl]ethanone], the Ki in experiment [1] came to 1.9 nM; in experiment [2] it was 3.1 nM.

As for `CN1CCN(C(=O)Cn2cc(Nc3nc4c(N5CC6CCC(C5)N6S(=O)(=O)c5ccc(C#N)cc5)cccn4n3)cn2)CC1` [Example 149, 4-[3-[2-([1-[2-(4-methylpiperazin-1-yl)-2-oxoethyl]-1H-pyrazol-4-yl]amino)-[1,2,4]triazolo[1,5-a]pyridin-8-yl]-3,8-diazabicyclo[3.2.1]octane-8-sulfonyl]benzonitrile], the results for the Ki in experiment [1] and in experiment [2] were 1.1 nM and 2 nM, respectively.

In the case of `CN1CCN(C(=O)Cn2cc(Nc3nc4c(N5CC6CCC(C5)N6S(=O)(=O)c5ccccc5F)cccn4n3)cn2)CC1` [Example 150, 2-[4-[[8-[8-(2-fluorophenyl)sulfonyl-3,8-diazabicyclo[3.2.1]octan-3-yl]-[1,2,4]triazolo[1,5-a]pyridin-2-yl]amino]pyrazol-1-yl]-1-(4-methylpiperazin-1-yl)ethanone], the Ki amounted to 0.7 nM in experiment [1] and 1.5 nM in experiment [2].

Consider `O=C(Cn1cc(Nc2nc3c(N4CC5CCC(C4)N5C(=O)CCC(F)(F)F)cccn3n2)cn1)N1CCN(C2CCC2)CC1` [Example 152, 1-[3-[2-[[1-[2-(4-cyclobutylpiperazin-1-yl)-2-oxo-ethyl]pyrazol-4-yl]amino]-[1,2,4]triazolo[1,5-a]pyridin-8-yl]-3,8-diazabicyclo[3.2.1]octan-8-yl]-4,4,4-trifluoro-butan-1-one], for which the Ki in experiment [1] was 0.6 nM; in experiment [2], 1.7 nM.

With `O=C(Cn1cc(Nc2nc3c(N4CC5CCC(C4)N5C(=O)CCC(F)(F)F)cccn3n2)cn1)N1CCN(C2CCCCC2)CC1` [Example 153, 1-[3-[2-[[1-[2-(4-cyclohexylpiperazin-1-yl)-2-oxo-ethyl]pyrazol-4-yl]amino]-[1,2,4]triazolo[1,5-a]pyridin-8-yl]-3,8-diazabicyclo[3.2.1]octan-8-yl]-4,4,4-trifluoro-butan-1-one], the figures for the Ki in experiment [1] and in experiment [2] were 0.2 nM and 0.3 nM, respectively.

For the compound `CN1CCN(C(=O)Cn2cc(Nc3nc4c(N5CC6CCC(C5)N6C(=O)CC(O)C(F)(F)F)cccn4n3)cn2)CC1` (stereo not drawn) [Example 154, 4,4,4-trifluoro-3-hydroxy-1-[3-[2-[[1-[2-(4-methylpiperazin-1-yl)-2-oxo-ethyl]pyrazol-4-yl]amino]-[1,2,4]triazolo[1,5-a]pyridin-8-yl]-3,8-diazabicyclo[3.2.1]octan-8-yl]butan-1-one], the inhibition constant (Ki) in experiment [1] is 0.5 nM; in experiment [2], 0.9 nM.

Regarding `CN1CCN(C(=O)Cn2cc(Nc3nc4c(N5CC6CCC(C5)N6S(=O)(=O)c5cccc(F)c5)cccn4n3)cn2)CC1` [Example 156, 2-[4-[[8-[8-(3-fluorophenyl)sulfonyl-3,8-diazabicyclo[3.2.1]octan-3-yl]-[1,2,4]triazolo[1,5-a]pyridin-2-yl]amino]pyrazol-1-yl]-1-(4-methylpiperazin-1-yl)ethanone], the inhibition constant Ki in experiment [1] turned out to be 1.3 nM; in experiment [2], 3.7 nM.

For the compound `CN1CCN(C(=O)Cn2cc(Nc3nc4c(N5CC6CCC(C5)N6C(=O)c5ccsc5)cccn4n3)cn2)CC1` [Example 157, 1-(4-methylpiperazin-1-yl)-2-[4-[[8-[8-(thiophene-3-carbonyl)-3,8-diazabicyclo[3.2.1]octan-3-yl]-[1,2,4]triazolo[1,5-a]pyridin-2-yl]amino]pyrazol-1-yl]ethanone], the inhibitory constant (Ki) in experiment [1] was found to be 0.4 nM; in experiment [2] it was 1.4 nM.

For the compound `CN1CCN(C(=O)Cn2cc(Nc3nc4c(N5CC6CCC(C5)N6S(=O)(=O)Cc5ccccc5F)cccn4n3)cn2)CC1` [Example 158, 2-[4-[[8-[8-[(2-fluorophenyl)methylsulfonyl]-3,8-diazabicyclo[3.2.1]octan-3-yl]-[1,2,4]triazolo[1,5-a]pyridin-2-yl]amino]pyrazol-1-yl]-1-(4-methylpiperazin-1-yl)ethanone], the inhibition constant Ki in experiment [1] was determined as 0.9 nM; in experiment [2], 2.8 nM.

For the compound `CN1CCN(C(=O)Cn2cc(Nc3nc4c(N5CC6CCC(C5)N6S(=O)(=O)Cc5cccc(F)c5)cccn4n3)cn2)CC1` [Example 159, 2-[4-[[8-[8-[(3-fluorophenyl)methylsulfonyl]-3,8-diazabicyclo[3.2.1]octan-3-yl]-[1,2,4]triazolo[1,5-a]pyridin-2-yl]amino]pyrazol-1-yl]-1-(4-methylpiperazin-1-yl)ethanone], the inhibitory constant (Ki) in experiment [1] was 0.7 nM; in experiment [2], 2.9 nM.

As for `CN1CCN(C(=O)Cn2cc(Nc3nc4c(N5CC6CCC(C5)N6S(=O)(=O)Cc5ccc(F)cc5)cccn4n3)cn2)CC1` [Example 160, 2-[4-[[8-[8-[(4-fluorophenyl)methylsulfonyl]-3,8-diazabicyclo[3.2.1]octan-3-yl]-[1,2,4]triazolo[1,5-a]pyridin-2-yl]amino]pyrazol-1-yl]-1-(4-methylpiperazin-1-yl)ethanone], the figures for the Ki in experiment [1] and in experiment [2] were 0.6 nM and 0.9 nM, respectively.

As for `CN1CCN(C(=O)Cn2cc(Nc3nc4c(N5CC6CCC(C5)N6S(=O)(=O)Cc5ccccc5Cl)cccn4n3)cn2)CC1` [Example 161, 2-[4-[[8-[8-[(2-chlorophenyl)methylsulfonyl]-3,8-diazabicyclo[3.2.1]octan-3-yl]-[1,2,4]triazolo[1,5-a]pyridin-2-yl]amino]pyrazol-1-yl]-1-(4-methylpiperazin-1-yl)ethanone], the inhibition constant Ki amounted to 0.6 nM in experiment [1] and 0.7 nM in experiment [2].

On to `CN1CCN(C(=O)Cn2cc(Nc3nc4c(N5C[C@H]6CC[C@@H](C5)[C@H]6OCc5ccc(F)nc5)cccn4n3)cn2)CC1` [Example 162, 1-(4-methylpiperazin-1-yl)-2-[4-[[8-[rac-(1S,5R)-8-[(6-fluoro-3-pyridyl)methoxy]-3-azabicyclo[3.2.1]octan-3-yl]-[1,2,4]triazolo[1,5-a]pyridin-2-yl]amino]pyrazol-1-yl]ethanone], for which the Ki in experiment [1] and in experiment [2] was 0.6 nM throughout.

On to `CN1CCN(C(=O)Cn2cc(Nc3nc4c(N5C[C@H]6CC[C@@H](C5)[C@H]6N(C)C(=O)CC(F)(F)F)cccn4n3)cn2)CC1` [Example 164, 3,3,3-trifluoro-N-methyl-N-[rac-(1S,5R)-3-[2-[[1-[2-(4-methylpiperazin-1-yl)-2-oxo-ethyl]pyrazol-4-yl]amino]-[1,2,4]triazolo[1,5-a]pyridin-8-yl]-3-azabicyclo[3.2.1]octan-8-yl]propanamide], for which the Ki in experiment [1] came to 0.7 nM; in experiment [2], 1 nM.

As for `CN1CCN(C(=O)Cn2cc(Nc3nc4c(N5CC6CCC(C5)N6S(=O)(=O)Cc5cccc(Cl)c5)cccn4n3)cn2)CC1` [Example 165, 2-[4-[[8-[8-[(3-chlorophenyl)methylsulfonyl]-3,8-diazabicyclo[3.2.1]octan-3-yl]-[1,2,4]triazolo[1,5-a]pyridin-2-yl]amino]pyrazol-1-yl]-1-(4-methylpiperazin-1-yl)ethanone], the results for the Ki in experiment [1] and in experiment [2] were 0.4 nM and 0.8 nM, respectively.

As to `CN1CCN(C(=O)Cn2cc(Nc3nc4c(N5CC6CCC(C5)N6S(=O)(=O)Cc5ccc(Cl)cc5)cccn4n3)cn2)CC1` [Example 166, 2-[4-[[8-[8-[(4-chlorophenyl)methylsulfonyl]-3,8-diazabicyclo[3.2.1]octan-3-yl]-[1,2,4]triazolo[1,5-a]pyridin-2-yl]amino]pyrazol-1-yl]-1-(4-methylpiperazin-1-yl)ethanone], the values for the inhibitory constant (Ki) in experiment [1] and in experiment [2] were 0.7 nM and 0.9 nM, respectively.

Consider `CN1CCN(C(=O)Cn2cc(Nc3nc4c(N5CC6CCC(C5)N6S(=O)(=O)Cc5ccccc5C(F)(F)F)cccn4n3)cn2)CC1` [Example 167, 1-(4-methylpiperazin-1-yl)-2-[4-[[8-[8-([2-(trifluoromethyl)phenyl]methylsulfonyl]-3,8-diazabicyclo[3.2.1]octan-3-yl]-[1,2,4]triazolo[1,5-a]pyridin-2-yl]amino]pyrazol-1-yl]ethanone], for which the inhibition constant (Ki) in experiment [1] came out at 0.6 nM; in experiment [2], 1 nM.
